Here are results for 18 compounds from patent publication US20030100550A1, “Carboxamide diazepin derivatives, preparation method, use as medicines, pharmaceutical compositions and use thereof” (priority 2002, published 2003).

The target of assay [1] is T1, Cathepsin B (Homo sapiens, UniProt P07858).
T1 construct: purchased Calbiochem
Put plainly: Study of Cathepsin B inhibition (fluorescence, Z-arg-arg-AMC). Conditions: substrate Z-arg-arg-AMC 20 μM, enzyme 16 ng/ml, 1 hour at ambient temperature. Format: biochemical. As to the method: (§1) The products to be tested (10 mM) are diluted to […] in DMSO and distributed into Nunc polystyrene 96 well plates at a rate of 2 μl per well. Column 12 of the plate is reserved for the controls and therefore receives […] of DMSO (without products) per well. The plates are stored at −80° C. and thawed on the day of the experiment.
(§2) The products are diluted to 50 μM by adding 38 μl of reaction buffer: sodium acetate 100 mM, EDTA 5 mM, DTT […] pH 5.5. The addition as well as all the operations by pipette are carried out with a CybiWell 96 tip pipette. After mixing the solutions, each product is transferred into 2 wells (duplicates) of a Greiner black 384 well plate at a rate of 10 μl per well. Two 96-well plates can therefore be tested in a 384-well plate.
(§3) A solution of substrate at 50 μM, Z-Val-arg-AMC (Calbiochem), is prepared in the reaction buffer. The substrate, is then distributed into all the wells of the 384-well plate (20 μl per well).
(§4) A solution of Cathepsin K at 12.5 ng/ml is prepared in the reaction buffer and distributed into all the wells of the 384-well plate (20 μl per well) except for the 16 wells serving as 100% inhibition controls (column 23 and 24, lines I to P) which receive 20 μl of enzyme-free buffer.
(§5) The plates are then incubated 2H at ambient temperature, then read on Fluoroskan (Labsystems): excitation 390 nm; emission 460 nm
(§6) The final concentrations of each of the reagents are: products 10 μM, substrate 20 μM, enzyme 5 ng/ml.
(§7) The % inhibition for each of the products is calculated by using points at 0 and 100% inhibition of each plate as references. The products presenting a significant inhibition are then retested on a range of concentrations from 50 to 0.5 μM to determine an IC50.
Study of Cathepsin B Inhibition:
Protocol identical to that of Cathepsin K except for:
Z-arg-arg-AMC substrate (Calbiochem), solution at 50 μM, final concentration 20 μM
Cathepsin B (Calbiochem), solution at 40 ng/ml, final concentration 16 ng/ml
Incubation for 1 hour at ambient temperature

For assay [2], the target named is T2, Cathepsin K (Homo sapiens, UniProt P43235).
T2 sequence (P43235 115-329): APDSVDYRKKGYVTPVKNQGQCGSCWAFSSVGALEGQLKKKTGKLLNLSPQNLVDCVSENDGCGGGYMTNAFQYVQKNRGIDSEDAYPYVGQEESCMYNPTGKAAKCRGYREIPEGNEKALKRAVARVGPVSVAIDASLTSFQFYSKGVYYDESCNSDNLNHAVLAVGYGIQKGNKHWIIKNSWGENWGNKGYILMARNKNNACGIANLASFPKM
Put plainly: Study of Cathepsin K inhibition (fluorescence, Z-Val-arg-AMC). The format is biochemical. The settings on record: substrate Z-Val-arg-AMC 20 μM, enzyme 5 ng/ml, 2H at ambient temperature; read-out: Cathepsin K IC50. The method, then:
Study of Cathepsin K Inhibition:
as §1, §2, §3, §4, §5, §6, §7

Each structure is given as a SMILES string.

A word on the IC50: it is the concentration that inhibits the measured activity by half. Take `C=CCOC(=O)CC[C@H](NC(=O)[C@@H]1CCCN2C(=O)CC[C@H](NC(=O)Nc3ccc(Oc4ccccc4)cc3)C(=O)N12)C(=O)C=[N+]=[N-]` [Example 43, (2-propenyl)(4S)6-diazo-4-[[[(1S,9S)-9-[[[(4-phenoxyphenyl)amino]carbonyl]amino]-octahydro-6,10-dioxo-6H-pyridazino[1,2-a][1,2]diazepine-1-yl]carbonyl]amino]-5-oxo-hexanoate]: the IC50 came to 15 µM in assay [1] and 1.5 µM in assay [2]. Consider `C=CCOC(=O)CC[C@H](NC(=O)[C@@H]1CCCN2C(=O)CC[C@H](NS(=O)(=O)c3ccc(-c4ccon4)s3)C(=O)N12)C(=O)C=[N+]=[N-]` [Example 48, (2-propenyl)(4S)6-diazo-4-[[[(1S,9S)-9-[[[5-(isoxazol-3-yl)-2-thienyl]sulphonyl]amino]-octahydro-6,10-dioxo-6H-pyridazino[1,2-a][1,2]diazepine-1-yl]carbonyl]amino]-5-oxo-hexanoate], for which the figures for the IC50 in assay [1] and in assay [2] were 7 µM and 3 µM, respectively.

Regarding `C=CCOC(=O)CC[C@H](NC(=O)[C@@H]1CCCN2C(=O)CC[C@H](NC(=O)c3ccco3)C(=O)N12)C(=O)COC(=O)c1c(Cl)cccc1Cl` [Example 91, (2-propenyl)(4S)6-[(2,6-dichlorobenzoyl)oxy]-4-[[[(1S,9S)-9-[[(2-furanyl)carbonyl]amino]-octahydro-6,10-dioxo-6H-pyridazino[1,2-a][1,2]diazepine-1-yl]carbonyl]amino]-5-oxo-hexanoate], the IC50 in assay [1] was below 0.2 µM; in assay [2] it was 6 µM.

With `C=CCOC(=O)CC[C@H](NC(=O)[C@@H]1CCCN2C(=O)CC[C@H](NS(=O)(=O)c3ccc(C(F)(F)F)cc3)C(=O)N12)C(=O)COC(=O)c1c(Cl)cccc1Cl` [Example 101, (2-propenyl)(4S)6-[(2,6-dichlorobenzoyl)oxy]-4-[[[(1S,9S)-9-[[[4-(trifluoromethyl)phenyl]sulphonyl]amino]-octahydro-6,10-dioxo-6H-pyridazino[1,2-a][1,2]diazepine-1-yl]carbonyl]amino]-5-oxo-hexanoate], the IC50 in assay [1] was found to be 6 µM. On the same count and under the same terms, to `COc1cccc(C(=O)N[C@H]2CCC(=O)N3CCC[C@@H](C(=O)N[C@@H](Cc4ccccc4)C(=O)COC(=O)c4c(Cl)cccc4Cl)N3C2=O)c1` [Example 185, 9-[(9S)-(3-methoxybenzoyl)amino]-N-((2S)-4-[(2,6-dichlorobenzoyl)oxy]-1-phenyl-3-oxo-2-butyl]-octahydro-6,10-dioxo-6H-(1S)-pyridazino[1,2-a][1,2]diazepine-1-carboxamide] belongs 7 µM. Consider `O=C(N[C@H]1CCC(=O)N2CCC[C@@H](C(=O)N[C@@H](Cc3ccccc3)C(=O)COC(=O)c3c(Cl)cccc3Cl)N2C1=O)c1ccco1` [Example 192, 9-[(9S)-[(2-furanyl)carbonyl]amino]-N-[(2S)-4-[(2,6-dichlorobenzoyl)oxy]-1-phenyl-3-oxo-2-butyl]-octahydro-6,10-dioxo-6H-(1S)-pyridazino[1,2-a][1,2]diazepine-1-carboxamide], for which the figures for the IC50 in assay [1] and in assay [2] were 18 µM and 20 µM, respectively. The matching figures for `O=C(NCCc1cccs1)N[C@H]1CCC(=O)N2CCC[C@@H](C(=O)N[C@@H](Cc3ccccc3)C(=O)CN3CCN(CC(=O)N4CCCC4)CC3)N2C1=O` [Example 229]: 18 µM and 20 µM.

Consider `CS(=O)(=O)N[C@H]1CCC(=O)N2CCC[C@@H](C(=O)N[C@@H](Cc3ccccc3)C(=O)COC(=O)c3c(Cl)cccc3Cl)N2C1=O` [Example 234, 9-[(9S)-(methylsulphonyl)amino]-N-[(2S)-1-phenyl-4-[(-2,6-dichlorobenzoyl)oxy]-3-oxo-2-butyl]-octahydro-6,10-dioxo-6H-(1S)-pyridazino[1,2-a][1,2]diazepine-1-carboxamide], for which the figures for the IC50 in assay [1] and in assay [2] were 18 µM and 20 µM, respectively. In the same order, the values of `CC(C)C[C@H](NC(=O)[C@@H]1CCCN2C(=O)CC[C@H](NS(C)(=O)=O)C(=O)N12)C(=O)COC(=O)c1c(Cl)cccc1Cl` [Example 304, 9-[(9S)-(methylsulphonyl)amino]-N-[(3S)-5-methyl-1-[(2,6-dichlorobenzoyl)oxy]-2-oxo-3-hexyl]-octahydro-6,10-dioxo-6H-(1S)-pyridazino[1,2-a][1,2]diazepine-1-carboxamide] are 1.5 µM and 12 µM. In turn, `CC(C)C[C@H](NC(=O)[C@@H]1CCCN2C(=O)CC[C@H](NS(=O)(=O)c3ccc(C(F)(F)F)cc3)C(=O)N12)C(=O)COC(=O)c1c(Cl)cccc1Cl` [Example 313, 9-[(9S)-[[[4-(trifluoromethyl)phenyl]sulphonyl]amino]]-N-[(3S)-5-methyl-1-[(2,6-dichlorobenzoyl)oxy]-2-oxo-3-hexyl]-octahydro-6,10-dioxo-6H-(1S)-pyridazino[1,2-a][1,2]diazepine-1-carboxamide] showed an IC50 in assay [1] of 5 µM. Consider `CC(C)C[C@H](NC(=O)[C@@H]1CCCN2C(=O)CC[C@H](NC(=O)NC3CCCCC3)C(=O)N12)C(=O)C=[N+]=[N-]` [Example 343, 9-[(9S)-[(cyclohexylamino)carbonyl]amino]-N-((3S)-1-diazo-5-methyl-2-oxo-3-hexyl)-octahydro-6,10-dioxo-6H-(1S)-pyridazino[1,2-a][1,2]diazepine-1-carboxamide], for which, in assay [2], the IC50 stood at 14 µM. On the same count and under the same terms, to `CC(C)C[C@H](NC(=O)[C@@H]1CCCN2C(=O)CC[C@H](NC(=O)Nc3ccc(Oc4ccccc4)cc3)C(=O)N12)C(=O)C=[N+]=[N-]` [Example 344, 9-[(9S)-[[(4-phenoxyphenyl)amino]carbonyl]amino]-N-((3S)-1-diazo-5-methyl-2-oxo-3-hexyl)-octahydro-6,10-dioxo-6H-(1S)-pyridazino[1,2-a][1,2]diazepine-1-carboxamide] belongs 5 µM. In the case of `CC(C)C[C@H](NC(=O)[C@@H]1CCCN2C(=O)CC[C@H](NC(=O)NCCc3cccs3)C(=O)N12)C(=O)C=[N+]=[N-]` [Example 345, 9-[(9S)-[[[2-(thien-2-yl)-ethyl]amino]carbonyl]amino]-N-((3S)-1-diazo-5-methyl-2-oxo-3-hexyl)-octahydro-6,10-dioxo-6H-(1S)-pyridazino[1,2-a][1,2]diazepine-1-carboxamide], in assay [2], the IC50 was determined as 5 µM.

Regarding `CC(C)C[C@H](NC(=O)[C@@H]1CCCN2C(=O)CC[C@H](NS(C)(=O)=O)C(=O)N12)C(=O)C=[N+]=[N-]` [Example 346, 9-[(9S)-(methylsulphonyl)amino]-N-((3S)-1-diazo-5-methyl-2-oxo-3-hexyl)-octahydro-6,10-dioxo-6H-(1S)-pyridazino[1,2-a][1,2]diazepine-1-carboxamide], the IC50 in assay [2] is 6 µM. Still for that read-out and setting: to `CC(C)C[C@H](NC(=O)[C@@H]1CCCN2C(=O)CC[C@H](NS(=O)(=O)c3ccc4ccccc4c3)C(=O)N12)C(=O)C=[N+]=[N-]` [Example 348, 9-[(9S)-[(2-naphthalenyl)sulphonyl]amino]-N-((3S)-1-diazo-5-methyl-2-oxo-3-hexyl)-octahydro-6,10-dioxo-6H-(1S)-pyridazino[1,2-a][1,2]diazepine-1-carboxamide] belongs 10 µM. `C[C@H](NC(=O)[C@@H]1CCCN2C(=O)CC[C@H](NC(=O)c3ccco3)C(=O)N12)C(=O)COC(=O)c1c(Cl)cccc1Cl` [Example 443, 9-[(9S)-[(2-furanyl)carbonyl]amino]-N-[(2S)-4-[(2,6-dichlorobenzoyl)oxy]-3-oxo-2-butyl]-octahydro-6,10-dioxo-6H-(1S)-pyridazino[1,2-a][1,2]diazepine-1-carboxamide] showed an IC50 in assay [1] of 5 µM. For the compound `COc1cccc(C(=O)N[C@H]2CCC(=O)N3CCC[C@@H](C(=O)N[C@@H](C)C(=O)COC(=O)c4c(Cl)cccc4Cl)N3C2=O)c1` [Example 463, 9-[(9S)-(3-methoxybenzoyl)amino]-N-[(2S)-4-[(2,6-dichlorobenzoyl)oxy]-3-oxo-2-butyl]-octahydro-6,10-dioxo-6H-(1S)-pyridazino[1,2-a][1,2]diazepine-1-carboxamide], the concentration for half-maximal inhibition (IC50) in assay [1] stood at 1.5 µM.

With `C[C@H](NC(=O)[C@@H]1CCCN2C(=O)CC[C@H](NS(=O)(=O)c3ccc(C(F)(F)F)cc3)C(=O)N12)C(=O)COC(=O)c1c(Cl)cccc1Cl` [Example 481, 9-[(9S)-[[4-(trifluoromethyl)phenyl]sulphonyl]amino]-N-[(2S)-4-[(2,6-dichlorobenzoyl)oxy]-3-oxo-2-butyl]-octahydro-6,10-dioxo-6H-(1S)-pyridazino[1,2-a][1,2]diazepine-1-carboxamide], the IC50 in assay [1] was found to be 6 µM.
